Results reported in PubChem BioAssay (NCI).
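Grown in 96-well plates, cells were treated for 48 hours with each compound at five concentrations. Insufficient inhibition: endpoint recorded as highest concentration tested. At the TGI there is no net growth.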

What was measured:
Experiment in all cases: DTP human tumour cell line panel, 48 h
RPMI-8226 leukemia = tested on: RPMI-8226 leukemia
SR leukemia = tested on: SR leukemia
K-562 leukemia = tested on: K-562 leukemia
MDA-MB-231 breast = tested on: MDA-MB-231 breast
CCRF-CEM leukemia = tested on: CCRF-CEM leukemia
SW-620 colon = tested on: SW-620 colon
HCT-15 colon = tested on: HCT-15 colon
NCI-H522 lung = tested on: NCI-H522 lung
MOLT-4 leukemia = tested on: MOLT-4 leukemia
HL-60(TB) leukemia = tested on: HL-60(TB) leukemia
HT29 colon = tested on: HT29 colon
RXF 393 renal = tested on: RXF 393 renal
SK-OV-3 ovarian = tested on: SK-OV-3 ovarian
NCI-H23 lung = tested on: NCI-H23 lung
A549 NSCLC = tested on: A549 NSCLC
U251 CNS = tested on: U251 CNS
SK-MEL-2 melanoma = tested on: SK-MEL-2 melanoma
DU-145 prostate = tested on: DU-145 prostate
OVCAR-5 ovarian = tested on: OVCAR-5 ovarian
ACHN renal = tested on: ACHN renal

Structure (SMILES) | TGI (RPMI-8226 leukemia) [µM] | TGI (SR leukemia) [µM] | TGI (K-562 leukemia) [µM] | TGI (MDA-MB-231 breast) [µM] | TGI (CCRF-CEM leukemia) [µM] | TGI (SW-620 colon) [µM] | TGI (HCT-15 colon) [µM] | TGI (NCI-H522 lung) [µM] | TGI (MOLT-4 leukemia) [µM] | TGI (HL-60(TB) leukemia) [µM] | TGI (HT29 colon) [µM] | TGI (RXF 393 renal) [µM] | TGI (SK-OV-3 ovarian) [µM] | TGI (NCI-H23 lung) [µM] | TGI (A549 NSCLC) [µM] | TGI (U251 CNS) [µM] | TGI (SK-MEL-2 melanoma) [µM] | TGI (DU-145 prostate) [µM] | TGI (OVCAR-5 ovarian) [µM] | TGI (ACHN renal) [µM]
C[N+]1(CCC[N+]2(C)CC3C4C=CC(CC4)C3C2)CCOCC1 (stereo not drawn) | > 100 | > 100 | > 100 | > 100 | > 100 | > 100 | > 100 | > 100 | > 100 | > 100 | > 100 | > 100 | > 100 | > 100 | > 100 | > 100 | > 100 | > 100 | > 100 | > 100
CCOC(=O)c1c(N2CCCC2)ncn(C)c1=S | > 100 | > 100 | > 100 | > 100 | > 100 | > 100 | > 100 | > 100 | > 100 | > 100 | > 100 | > 100 | – | > 100 | > 100 | > 100 | > 100 | > 100 | > 100 | > 100
NC(Cc1ncccn1)C(=O)O (stereo not drawn) | > 100 | > 100 | > 100 | > 100 | > 100 | > 100 | > 100 | > 100 | > 100 | – | > 100 | > 100 | > 100 | > 100 | > 100 | > 100 | > 100 | > 100 | > 100 | > 100
O=C(Nc1nnc(-c2c(Cl)c(Cl)c(Cl)c(Cl)c2-c2nc3cc(C(=O)c4ccccc4)ccc3[nH]2)o1)c1ccc(Cl)cc1 | > 100 | > 100 | > 100 | > 100 | > 100 | > 100 | > 100 | – | > 100 | > 100 | > 100 | > 100 | > 100 | > 100 | > 100 | > 100 | > 100 | > 100 | > 100 | > 100
COC(=O)/C=C\C(C#N)(C#N)N=Cc1sccc1C | > 24.6 | > 100 | > 100 | 1.93 | 4.19 | 3.88 | 4.57 | 1.67 | – | 4.45 | 3.31 | 4.22 | 34.1 | 25.3 | 29.6 | > 40.6 | 30.2 | 13.4 | 14.4 | 3.8
CCn1c(=O)c2nc(SC)sc2n(-c2ccccc2)c1=O | > 100 | > 100 | > 100 | > 100 | > 100 | > 100 | > 100 | > 100 | > 100 | > 100 | > 100 | > 100 | > 100 | > 100 | > 100 | > 100 | > 100 | > 100 | > 100 | > 100
COc1c2c(cc3c1C1(O)Cc4ccc5c(c4C[N+]1(C)CC3)OCO5)OCO2 (stereo not drawn) | > 100 | > 100 | > 100 | > 100 | > 100 | > 100 | > 100 | > 100 | > 100 | > 100 | > 100 | > 100 | > 100 | > 100 | > 100 | > 100 | > 100 | > 100 | > 100 | > 100
CCC(O)c1ccc(N=Cc2ccccc2O)cc1 (stereo not drawn) | > 100 | > 100 | > 100 | > 100 | – | > 100 | > 100 | > 100 | > 100 | > 100 | > 100 | > 100 | > 100 | > 100 | > 100 | > 100 | > 100 | > 100 | > 100 | > 100
CN(C(=O)Cc1cc(Cl)c(Cl)cc1NC(=O)CN)[C@H]1CCCC[C@@H]1N1CCCC1 | 94 | 77.8 | 57.5 | 71.2 | 73.3 | > 100 | > 100 | – | > 100 | 52.7 | 58.7 | > 100 | > 100 | > 100 | > 100 | 32.6 | 35.7 | > 100 | > 100 | > 100
CC[C@H](C)C1=C(O)[N@+]2([O-])Oc3ccc(-c4c(O)c(O)c(-c5ccc(O)cc5)c(OC(C)=O)c4OC(C)=O)cc3O[C@]2([C@@H](C)CC)C(=O)N1O | 29.9 | > 50 | > 50 | > 50 | – | > 50 | > 50 | 17.4 | > 50 | > 50 | > 50 | > 50 | 48 | > 50 | > 50 | > 50 | > 50 | > 50 | > 50 | > 50
CC(C)(C)OC(=O)CN1CCN(CC(=O)N2CCN(C(=O)OCc3ccccc3)CC2)CCN(CC(=O)OC(C)(C)C)CCN(CC(=O)N2CCN(C(=O)OCc3ccccc3)CC2)CC1 | 2.91 | 1.75 | – | 5.01 | 3.51 | 8.5 | 19.1 | 2.87 | 5.05 | 0.525 | 1.37 | 17 | 16.5 | 12.5 | 16.3 | 9.51 | 5.54 | 20.1 | 25.8 | 22.3
COc1cccc2cc(C(C)=O)c(=O)oc12 | > 100 | > 100 | > 100 | > 100 | > 100 | > 100 | – | > 100 | > 100 | > 100 | > 100 | > 100 | – | > 100 | > 100 | > 100 | > 100 | > 100 | > 100 | > 100
CCN(CC)c1ccc2cc(C(=O)Nc3ccc(C)cc3)c(=N)oc2c1 | > 100 | > 100 | > 100 | > 100 | > 100 | > 100 | > 100 | – | > 100 | > 100 | > 100 | > 100 | > 100 | > 100 | > 100 | > 100 | > 100 | > 100 | > 100 | > 100
CN(C)c1cccc2c1C(=O)C=CC21CCc2ccc(N(C)C)c3c(N(C)C)ccc1c23 (stereo not drawn) | 58.6 | 56.5 | 24.2 | 31.2 | 87.7 | 35.6 | – | – | 47 | 27.3 | 27 | 20.8 | 27 | 37.4 | 42.3 | – | – | 17.5 | 49.6 | 26.2
COc1ccc2c3c([nH]c2c1)CCN(Cc1ccccc1)C3 | 64.6 | 40.3 | 51.3 | 66.4 | > 100 | 51.7 | 39 | – | 73.7 | 35.8 | > 100 | 50.7 | > 100 | > 100 | > 100 | 53.4 | – | > 100 | 69 | > 100
COc1ccc(N2C(=O)C3c4[nH]c5ccc(F)cc5c4C4CCC(C(C)(C)C)CC4C3C2=O)cc1 (stereo not drawn) | > 10 | > 10 | – | > 10 | > 10 | > 10 | > 10 | > 10 | > 10 | > 10 | > 10 | > 10 | > 10 | > 10 | > 10 | > 10 | > 10 | > 10 | > 10 | > 10
O=[N+]([O-])/C(C(Cl)=C(Cl)Cl)=C(\N1CCCCC1)n1nnc2ccccc21 | 38.6 | 58.4 | 22.5 | 34.5 | 14.5 | 39.1 | 39.1 | 40 | 18.3 | – | 39.3 | 43.6 | 68.2 | 38.8 | 51.1 | 31.1 | 37.7 | 37.7 | 36.9 | 42.3
COc1nc2c(c(=O)n1C)N=C(c1ccc(Cl)cc1)CC(c1ccccc1)N2 (stereo not drawn) | 54 | > 100 | 54.2 | 53.7 | 69.3 | > 100 | 30.4 | 44.9 | 49.6 | – | 47.4 | 55 | > 100 | 69.1 | > 100 | > 100 | 42.9 | > 100 | 78.7 | 54
CC(=O)C(=[N+]=[N-])C(=O)N(C)CCC#N | > 10 | > 10 | > 10 | > 10 | > 10 | > 10 | > 10 | – | > 10 | > 10 | > 10 | > 10 | > 10 | > 10 | > 10 | > 10 | > 10 | > 10 | > 10 | > 10
CNC(=O)OC(COC)CN1CCN(c2ccccc2C)CC1 (stereo not drawn) | > 10 | > 10 | > 10 | > 10 | > 10 | > 10 | > 10 | > 10 | > 10 | > 10 | > 10 | > 10 | > 10 | > 10 | > 10 | > 10 | > 10 | > 10 | – | > 10
COc1ccc2c3c1OC1C34CCN(C)C(C2)C4=CC(I)C1(OC)OC (stereo not drawn) | 14.2 | 10.2 | 23.4 | 36 | 5.87 | 20.1 | 27.8 | 15.3 | 21.2 | – | 22 | 23.1 | 28.9 | 21.1 | 54.8 | 29.8 | 30.3 | 22.6 | 38.4 | 23.4
Nc1ccc(-c2nc3ccccc3s2)cc1C#Cc1ccccc1 | 47.2 | > 100 | 84.4 | 47.8 | 93.2 | 34.7 | 38.2 | 34.2 | > 100 | 62.1 | 35.4 | 34.6 | 60.7 | 52.6 | 49 | 38.6 | – | 72.5 | 54.5 | 38.5
Cc1ccc2[nH]c3[nH]c(=S)[nH]c(=O)c3c2c1 | > 100 | > 100 | > 100 | > 100 | > 100 | > 100 | > 100 | > 100 | > 100 | > 100 | > 100 | > 100 | > 100 | > 100 | > 100 | – | > 100 | > 100 | > 100 | > 100
NC(=Nc1cccc(Cl)c1)c1ccccc1N | > 100 | > 100 | > 100 | > 100 | – | > 100 | > 100 | > 100 | > 100 | > 100 | > 100 | > 100 | > 100 | > 100 | > 100 | > 100 | – | > 100 | > 100 | > 100
